From patent publication US20070270475A1, “4-Methoxy-Pyrrolidine-2-Carboxylic Acid Compounds and Derivatives Thereof as Hepatitis C Virus Inhibitors” (priority 2004, published 2007)

molecular target: T1, HCV RNA Polymerase, recombinant NS5B with C-terminal 21 amino acid deletion, genotype 1a (strain H77) (Hepatitis C virus genotype 1a, UniProt P27958); assay: In vitro HCV RNA-dependent RNA polymerase inhibition assay, genotype 1a C-terminally truncated (delta21) enzyme; type: biochemical, HCV genotype 1a; details: genotype 1a NS5B delta21, 25 nM enzyme; read-out: IC50 in delta-21 1a enzyme inhibition assay
T1 construct: fused on or other part: C-terminal 6His-tag
T1 sequence (P27958 2601-2990 limits assumed, stated change not applied): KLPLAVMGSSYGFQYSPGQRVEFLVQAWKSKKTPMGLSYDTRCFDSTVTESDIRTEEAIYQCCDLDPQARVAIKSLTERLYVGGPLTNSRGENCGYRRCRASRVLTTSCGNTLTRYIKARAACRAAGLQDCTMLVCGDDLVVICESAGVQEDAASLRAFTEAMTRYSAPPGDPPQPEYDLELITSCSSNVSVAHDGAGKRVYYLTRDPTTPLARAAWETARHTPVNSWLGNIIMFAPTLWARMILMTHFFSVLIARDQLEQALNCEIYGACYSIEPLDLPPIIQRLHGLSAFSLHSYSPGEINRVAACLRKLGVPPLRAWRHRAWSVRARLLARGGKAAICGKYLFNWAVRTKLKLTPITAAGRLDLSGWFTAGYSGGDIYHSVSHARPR
Text: In Vitro Detection of inhibitors of HCV RNA-Dependent RNA Polymerase Activity
Incorporation of [^33P]-GMP into RNA was followed by absorption of the biotin labelled RNA polymer by streptavidin containing SPA beads. A synthetic template consisting of biotinylated 13mer-oligoG hybridised to polyrC was used as a homopolymer substrate.
a) Genotype 1a C-Terminally Truncated (delta21) Enzyme
HCV RNA Polymerase [Recombinant NS5B with C-terminal 21 amino acid deletion and C-terminal 6His-tag (Ferrari et al. J. Virol. 73(2), 1999, 1649. ‘Characterization of soluble hepatitis C virus RNA-dependent RNA polymerase expressed in Escherichia coli.’) expressed in E. coli and purified to homogeneity] was added to 25 nM final concentration. Polymerase of genotype la was from strain H77 (Yanagi, M., Purcell, R. H., Emerson, S. U. & Bukh, J. (1997), Proceedings of the National Academy of Sciences, USA 94, 8738-8743) containing a sequence change from valine to isoleucine at position 180.
Reaction Conditions were 25 nM enzyme, 1.5 μg/ml oligo-rG13/poly-rC and 0.2 μCi α-^33P-GTP in 0.5 μM GTP (20 Ci/mMol) , 20 mM Tris pH 7.5, 23 mM NaCl, 3 mM DTT, 5 mM MgCl2, 1 mM MnCl2.
Enzyme was diluted to 500 nM concentration in 20 mM Tris-HCl, pH 7.5, 25 mM NaCl and 3 mM DTT.
4× concentrated assay buffer mix was prepared using 1M Tris-HCl, pH7.5 (1 mL), 5M NaCl (0.25 mL), 1M DTT (0.12 mL) and Water (8.63 mL), Total 10 mL.
2× concentrated first reagent was prepared using 4× concentrated assay buffer mix (5 μL), 40 μ/μL RNasin (0.1 μL), 20 μg/mL polyrC/biotinylated-oligorG (1.6 μL), 500 nM enzyme (1 μL ) and Water (2.3 μL), Total 10 μL/well.
2× concentrated second reagent was prepared using 1 M MgCl2 ([…]), 1M MnCl2 (0.02 μL), 25 μM GTP (0.4 μL), α-[^33P]-GTP (10 μCi/μL, 0.02 μL) and water (9.5 μL), Total 10 μL/well.
The assay was set up using compound (1 μL in 100% DMSO), first reagent (10 μL), and second reagent (10 μL), Total 21 μL.
The reaction was performed in a U-bottomed, white, 96-well plate. The reaction was mixed on a plate-shaker, after addition of the Enzyme, and incubated for 1 h at 22° C. After this time, the reaction was stopped by addition of 60 μL 1.5 mg/ml streptavidin SPA beads (Amersham) in 0.1 M EDTA in PBS. The beads were incubated with the reaction mixture for 1 h at 22° C. after which 100 μL 0.1 M EDTA in PBS was added. The plate was sealed, mixed centrifuged and incorporated radioactivity determined by counting in a Trilux (Wallac) or Topcount (Packard) Scintillation Counter.
After subtraction of background levels without enzyme, any reduction in the amount of radioactivity incorporated in the presence of a compound, compared to that in the absence, was taken as a measure of the level of inhibition. Ten concentrations of compounds were tested in three- or fivefold dilutions. From the counts per minute, percentage of inhibition at highest concentration tested or IC50s for the compounds were calculated using GraFit 3, GraFit 4 or GraFit 5 (Erithacus Software Ltd.) software packages or a data evaluation macro for Excel based on XLFit software (IDBS).

Row | SMILES | IC50 [nM]
1 | COC[C@H]1C[C@@](Cc2ccccc2)(C(=O)O)N(C(=O)c2ccc(C(C)(C)C)c(OC)c2)[C@H]1c1nccs1 (racemic) [Compound E, rel-(2R,4S,5R)-2-benzyl-1-(3-methoxy-4-tert-butylbenzoyl)-4-methoxymethyl-5-(1,3-thiazol-2-yl)-pyrrolidine-2-carboxylic acid, reference compound] | > 1000
2 | COC[C@H]1C[C@@](Cn2cccn2)(C(=O)O)N(C(=O)c2ccc(C(C)(C)C)c(OC)c2)[C@H]1c1nccs1 (racemic) [Example 6, rel-(2R,4S,5R)-1-(3-Methoxy-4-tert-butylbenzoyl)-4-(methoxymethyl)-2-(1H-pyrazol-1-ylmethyl)-5-(1,3-thiazol-2-yl)pyrrolidine-2-carboxylic acid] | < 750
3 | COC[C@H]1C[C@@](Cc2cscn2)(C(=O)O)N(C(=O)c2ccc(C(C)(C)C)c(OC)c2)[C@H]1c1ncc(C)s1 (racemic) [Example 1, rel-(2R,4S,5R)-1-(3-Methoxy-4-tert-butylbenzoyl)-4-(methoxymethyl)-5-(5-methyl-1,3-thiazol-2-yl)-2-(1,3-thiazol-4-ylmethyl)pyrrolidine-2-carboxylic acid] | < 750
4 | COC[C@H]1C[C@@](Cc2cscn2)(C(=O)O)N(C(=O)c2ccc(C(C)(C)C)c(OC)c2)[C@H]1c1nccs1 (single isomer, unassigned; enantiomer a) [Example 12] | < 750
5 | COC[C@H]1C[C@@](Cc2ccsn2)(C(=O)O)N(C(=O)c2ccc(C(C)(C)C)c(OC)c2)[C@H]1c1nccs1 (single isomer, unassigned; enantiomer a) [Example 5] | < 750
6 | COC[C@H]1C[C@@](Cn2cccn2)(C(=O)O)N(C(=O)c2ccc(C(C)(C)C)c(OC)c2)[C@H]1c1nccs1 (single isomer, unassigned) [Example 7] | < 750
7 | COC[C@H]1C[C@@](CC(C)C)(C(=O)O)N(C(=O)c2ccc(C(C)(C)C)c(OC)c2)[C@H]1c1nccs1 (racemic) [Compound A, rel-(2S,4S,5R)-2-isobutyl-1-(3-methoxy-4-tert-butylbenzoyl)-4-methoxymethyl-5-(1,3-thiazol-2-yl)pyrrolidine-2-carboxylic acid, reference compound] | > 1000
8 | COC[C@H]1C[C@@](Cn2cccn2)(C(=O)O)N(C(=O)c2ccc(C(C)(C)C)c(OC)c2)[C@H]1c1ncc(C)s1 (racemic) [Example 10, rel-(2R,4S,5R)-1-(3-Methoxy-4-tert-butylbenzoyl)-4-(methoxymethyl)-5-(5-methyl-1,3-thiazol-2-yl)-2-(1H-pyrazol-1-ylmethyl)pyrrolidine-2-carboxylic acid] | < 750
9 | COC[C@H]1C[C@@](Cc2ccsn2)(C(=O)O)N(C(=O)c2ccc(C(C)(C)C)c(OC)c2)[C@H]1c1nccs1 (racemic) [Example 4, rel-(2R,4S,5R)-1-(3-Methoxy-4-tert-butylbenzoyl)-4-(methoxymethyl)-5-(1,3-thiazol-2-yl)-2-(1,2-thiazol-3-ylmethyl)pyrrolidine-2-carboxylic acid] | < 750
10 | COC[C@H]1C[C@@](CC(C)C)(C(=O)O)N(C(=O)c2ccc(C(C)(C)C)c(OC)c2)[C@H]1c1nccs1 [Compound B, (2S,4S,5R)-2-isobutyl-1-(3-methoxy-4-tert-butylbenzoyl)-4-methoxymethyl-5-(1,3-thiazol-2-yl)pyrrolidine-2-carboxylic acid, reference compound] | > 1000
11 | COC[C@H]1C[C@@](Cc2ccsn2)(C(=O)O)N(C(=O)c2ccc(C(C)(C)C)c(OC)c2)[C@H]1c1ncc(C)s1 (racemic) [Example 9, rel-(2R,4S,5R)-1-(3-Methoxy-4-tert-butylbenzoyl)-4-(methoxymethyl)-5-(5-methyl-1,3-thiazol-2-yl)-2-(1,2-thiazol-3-ylmethyl)pyrrolidine-2-carboxylic acid] | < 750
12 | COC[C@H]1C[C@@](Cc2cscn2)(C(=O)O)N(C(=O)c2ccc(C(C)(C)C)c(OC)c2)[C@H]1c1ncc(C)s1 (single isomer, unassigned; enantiomer a) [Example 2] | < 750
13 | COC[C@H]1C[C@@](CC(C)C)(C(=O)O)N(C(=O)c2ccc(C(C)(C)C)c(OC)c2)[C@H]1c1ncc(C)s1 (racemic) [Compound C, rel-(2S,4S,5R)-2-isobutyl-1-(3-methoxy-4-tert-butylbenzoyl)-4-methoxymethyl-5-(5-methyl-1,3-thiazol-2-yl)pyrrolidine-2-carboxylic acid, reference compound] | > 1000
14 | COC[C@H]1C[C@@](Cc2nccs2)(C(=O)O)N(C(=O)c2ccc(C(C)(C)C)c(OC)c2)[C@H]1c1ncc(C)s1 (racemic) [Example 8, rel-(2R,4S,5R)-1-(3-Methoxy-4-tert-butylbenzoyl)-4-(methoxymethyl)-5-(5-methyl-1,3-thiazol-2-yl)-2-(1,3-thiazol-2-ylmethyl)pyrrolidine-2-carboxylic acid] | < 750
15 | COCC1CC(CC(C)C)(C(=O)O)N(C(=O)c2ccc(C(C)(C)C)c(OC)c2)C1c1ncc(C)s1 (single isomer, unassigned; enantiomer a) [Compound D, reference compound] | 750 to 1000
16 | COC[C@H]1C[C@@](Cn2cccn2)(C(=O)O)N(C(=O)c2ccc(C(C)(C)C)c(OC)c2)[C@H]1c1ncc(C)s1 (single isomer, unassigned; enantiomer a) [Example 11] | < 750
17 | COC[C@H]1C[C@@](Cc2cscn2)(C(=O)O)N(C(=O)c2ccc(C(C)(C)C)c(OC)c2)[C@H]1c1nccs1 (racemic) [Example 3, rel-(2R,4S,5R)-1-(3-Methoxy-4-tert-butylbenzoyl)-4-(methoxymethyl)-5-(1,3-thiazol-2-yl)-2-(1,3-thiazol-4-ylmethyl)pyrrolidine-2-carboxylic acid] | < 750
